Data: article PMC13114161 (Antibiotics, 2026)
Converted amounts (≈) assume the structure as drawn. Like-named read-outs stand apart in the source and are kept apart here.

Experiments:
P. aeruginosa ATCC 27853 [1] = assay: Neutropenic murine thigh infection model; format: in vivo, CD-1 mice; settings: for Mean Log10 CFU (thigh): +24 hr
Protocol: Female CD-1 mice (6–8 weeks old; 22 ± 2 g) were obtained from Envigo Laboratories, quarantined for at least 3 days, and housed 5 per cage in accordance with the approved IACUC protocol (IACUC-2017-0049). Neutropenia was induced by intraperitoneal (IP) administration of cyclophosphamide (Cytoxan) at 150 mg/kg on day 4 and 100 mg/kg on day 1 prior to infection.
Mice were infected intramuscularly (IM) in the right thigh with 0.1 mL of bacterial suspension containing approximately 1 × 10^5–10^6 CFU/mL. […] At 2 h or 24 h post-infection, mice were euthanized by CO2 asphyxiation, and thighs were aseptically excised and placed in 2 mL sterile phosphate-buffered saline (PBS) on ice. Tissue homogenization was performed using a Polytron PT10-35 (12 mm aggregate, Kinematica, Malters, Switzerland).
Plates were incubated overnight at 37 °C, and colonies were enumerated the following day.

P. aeruginosa ATCC 27853 [2] = assay: MIC and levofloxacin potentiation (broth microdilution); format: cell-based, Pseudomonas aeruginosa; settings: for MIC: Pseudomonas aeruginosa, ATCC27853
Protocol: Once synthesized, the three fluorinated EPI analogs (TXA11114, TXA11164 and TXA12027) were first assayed for their antibacterial activities against P. aeruginosa ATCC 27853. They had MICs of 100, >200 and 100 µg/mL, respectively (Table 1). […] Particularly, the inactivity of TXA11164 was surprising as the pKa values of both the amines are similar to that in TXA11114.
(§1) MIC assays for potentiation of antimicrobial activity against P. aeruginosa were performed as described previously.

Aqueous solubility = format: physicochemical; settings: system solution (SS), pH 7.4, aqueous buffer, kinetic from dmso stock
Protocol: The aqueous solubility of TXA11114 was evaluated in system solution (SS) at pH 7.4. Known concentrations of TXA11114, prepared as DMSO stock solutions, were spiked into SS and incubated for 6 h at room temperature with constant shaking (250 rpm). Caffeine and diethylstilbestrol (DES) were used as positive controls. […] Aliquots (500 µL) of diluted test and control compounds were dispensed into 96-deep-well plates in triplicate, sealed, and incubated as described above. Following incubation, 300 µL samples were withdrawn and filtered using 0.22 µm filter plates. Optical density at λ_max was measured using a UV spectrophotometer.

[3] = system: multidrug-resistant P. aeruginosa clinical isolates from the CDC-FDA; assay: Levofloxacin MIC potentiation, CDC-FDA isolates; format: cell-based, Pseudomonas aeruginosa; settings: for Levofloxacin MIC fold difference, +EPI / Levofloxacin MIC, +EPI: EPI […] (TXA11114, TXA09155) or 50 μg/mL (MC-04,124, PAβN); for MIC: Pseudomonas aeruginosa
Protocol: In a comparative study, the levofloxacin-potentiating activity of TXA11114 was evaluated alongside the well-characterized EPIs PAβN and MC-04,124 using P. aeruginosa clinical isolates obtained from the CDC and FDA Antimicrobial Resistance Isolate Bank and the Walter Reed Army Institute of Research (WRAIR). […] While PAβN has been widely studied in laboratory strains, its activity against the CDC/FDA P. aeruginosa panel has been reported only sparingly, limiting direct cross-study comparisons.
as §1

in vivo = settings: female, CD-1, mouse, 30 mg/kg
Protocol: The P. aeruginosa strain UNT034-1 (ATCC 27853) was used for infection studies. Female CD-1 mice (6–8 weeks old; 22 ± 2 g) were obtained from Envigo Laboratories (Indianapolis, IN, USA). All procedures were conducted in accordance with protocols approved by the University of North Texas Health Science Center (UNTHSC) Institutional Animal Care and Use Committee (protocol IACUC-2021-0003). Neutropenia was induced by intraperitoneal (i.p.) injection of cyclophosphamide (Cytoxan) at 150 mg/kg on day 4 and 100 mg/kg on day 1 before infection. Mice were anesthetized by i.p. injection of ketamine (40 mg/kg) and xylazine (6 mg/kg) and intranasally inoculated with 0.05 mL of the prepared P. aeruginosa suspension by placing droplets onto the nares and allowing inhalation. Following inoculation, mice were returned to cages for recovery. […] At predetermined time points (0.083, 0.25, 0.5, 1, 2, 4, 8, and 24 h), groups of three mice were euthanized by CO2 asphyxiation. Blood was collected by cardiac puncture into tubes containing EDTA or serum separator gel, centrifuged at 4 °C, and plasma or serum was harvested within 30 min of collection. Bronchoalveolar lavage fluid (BALF) was collected to determine drug concentrations at the site of infection. Briefly, 1.2 mL of sterile 0.9% NaCl was instilled into the lungs via the trachea and gently withdrawn. The epithelial lining fluid (ELF) dilution factor was determined by the blood urea nitrogen (BUN) method. Plasma and BALF samples were stored at −80 °C until analysis. Drug concentrations were quantified by LC-MS/MS using a Surveyor HPLC system coupled to a TSQ Quantum Ultra triple-quadrupole mass spectrometer (Thermo Scientific). Separation was achieved on a Phenomenex Kinetex PFP column (50 × 2.1 mm, 2.6 µm) with a mobile phase gradient of water (0.1% formic acid, A) and acetonitrile (0.1% formic acid, B) at 0.5 mL/min. The gradient proceeded from 10% to 90% B over 4 min, held for 1 min, and re-equilibrated to initial conditions. The column oven was maintained at 30 °C. […] Samples (50 µL plasma or BALF) were spiked with 10 µL of internal standard in methanol, precipitated with 150 µL acetonitrile, vortexed, sonicated for 10 min, and centrifuged at 14,500 rpm for 5 min. A 100 µL aliquot of the supernatant was transferred to autosampler vials, and 10 µL was injected for analysis. Concentration-time data were analyzed using noncompartmental methods (PK Solutions v2.0; Summit Research Services, Montrose, CO, USA). Parameters including area under the concentration-time curve (AUC0-t), maximum concentration (Cmax), time to Cmax (Tmax), apparent volume of distribution (Vd), systemic clearance (CL), and terminal half-life (t½) were calculated. Data are presented as means ± standard deviation (SD) for three animals per time point.

[4] = levofloxacin 10 mg/kg SC QID, alone or with TXA11114 30 mg/kg IV QID

**Q.** What does the source list for NC[C@@H]1CN[C@H](CNC(=O)c2cc3ccc(-c4ccc(F)cc4)cc3[nH]2)C1 [TXA09155]?
**A.** Improvement of levofloxacin efficacy in murine thigh or lung infection models (P. aeruginosa ATCC 27853 [1]; thigh or lung infection models): neither TXA01182 nor TXA09155 improved levofloxacin efficacy; Fold MIC reduction [LVX/EPI-LVX] (P. aeruginosa ATCC 27853 [2]; EPI at […], ATCC 27853): 16 fold; MIC (P. aeruginosa ATCC 27853 [2]; EPI alone, ATCC 27853, read-out: EPI MIC): 50 µg/mL; LVX MIC (+EPI) (P. aeruginosa ATCC 27853 [2]; levofloxacin MIC with EPI at […], ATCC 27853): 0.063 µg/mL; solubility at 6 h (Aqueous solubility): 155 ± 3 µM (≈ 56.8 µg/mL); Levofloxacin MIC fold difference, +EPI ([3]; AR-0229): 32 fold; Levofloxacin MIC, +EPI ([3]; AR-0229): 2 µg/mL; Levofloxacin MIC fold difference, +EPI ([3]; AR-0232): 16 fold; Levofloxacin MIC, +EPI ([3]; AR-0232): 0.5 µg/mL; Levofloxacin MIC fold difference, +EPI ([3]; AR-0233): 32 fold; Levofloxacin MIC, +EPI ([3]; AR-0233): 0.125 µg/mL; Levofloxacin MIC fold difference, +EPI ([3]; AR-0234): 16 fold; Levofloxacin MIC, +EPI ([3]; AR-0234): 0.5 µg/mL; Levofloxacin MIC fold difference, +EPI ([3]; AR-0239): 16 fold; Levofloxacin MIC, +EPI ([3]; AR-0239): 4 µg/mL; Levofloxacin MIC, +EPI ([3]; AR-0242): 1 µg/mL; Levofloxacin MIC, +EPI ([3]; AR-0244): 2 µg/mL; Levofloxacin MIC fold difference, +EPI ([3]; AR-0246): 8, (8) fold; Levofloxacin MIC, +EPI ([3]; AR-0246): 8, (8) μg/mL; Levofloxacin MIC fold difference, +EPI ([3]; AR-0248): 32 fold; Levofloxacin MIC, +EPI ([3]; AR-0248): 0.5 µg/mL; Levofloxacin MIC fold difference, +EPI ([3]; AR-0249): 32 fold; Levofloxacin MIC, +EPI ([3]; AR-0249): 2 µg/mL; Levofloxacin MIC fold difference, +EPI ([3]; AR-0252): 64 fold; Levofloxacin MIC, +EPI ([3]; AR-0252): 0.5 µg/mL; Levofloxacin MIC fold difference, +EPI ([3]; AR-0253): 64 fold; Levofloxacin MIC, +EPI ([3]; AR-0253): 0.031 µg/mL; Levofloxacin MIC, +EPI ([3]; AR-0264): 1 µg/mL

**Q.** Which results are given for C[C@H]1COc2c(N3CCN(C)CC3)c(F)cc3c(=O)c(C(=O)O)cn1c23 [Levofloxacin, levofloxacin]?
**A.** Mean Log10 CFU (thigh) (P. aeruginosa ATCC 27853 [1]; [4]): 7.41 log10 CFU; Mean Log10 CFU (thigh) (P. aeruginosa ATCC 27853 [1]; levofloxacin 15 mg/kg SC QID, alone or with TXA11114 30 mg/kg IV QID): 5.97 log10 CFU; Mean Log10 CFU (thigh) (P. aeruginosa ATCC 27853 [1]; levofloxacin 20 mg/kg SC QID, alone or with TXA11114 30 mg/kg IV QID): 4.47 log10 CFU; Mean Log10 CFU Change vs +2 hr Control, Δlog10 (treatment-baseline), thigh (P. aeruginosa ATCC 27853 [1]; [4]): 1.33 log10 CFU; MIC (P. aeruginosa ATCC 27853 [2]; ATCC 27853 parent strain (Table S1), read-out: MIC): 1 µg/mL; Cmax (in vivo; BALF Cmax): 2000 ng/mL; Tmax (in vivo; BALF Tmax): 15 min; AUC(0-t) (in vivo; Plasma AUC 0-t): 32900 ng·h/mL; Cmax (in vivo; Plasma Cmax): 24100 ng/mL; half-life (in vivo; Plasma Half-life): 88.8 min; Tmax (in vivo; Plasma Tmax): 15 min; Vd (in vivo; Plasma Vd): 1.89 L/kg; AUC(0-t) (in vivo; sc, BALF AUC 0-t): 3900 ng·h/mL; MIC ([3]; read-out: Levofloxacin MIC, No EPI, AR-0229): 64 µg/mL; MIC ([3]; read-out: Levofloxacin MIC, No EPI, AR-0232): 8 µg/mL; MIC ([3]; read-out: Levofloxacin MIC, No EPI, AR-0233): 4 µg/mL; MIC ([3]; read-out: Levofloxacin MIC, No EPI, AR-0234): 8 µg/mL; MIC ([3]; read-out: Levofloxacin MIC, No EPI, AR-0239): 32 µg/mL; MIC ([3]; read-out: Levofloxacin MIC, No EPI, AR-0242): 8 µg/mL; MIC ([3]; read-out: Levofloxacin MIC, No EPI, AR-0244): 64 µg/mL; MIC ([3]; read-out: Levofloxacin MIC, No EPI, AR-0246): 64 µg/mL; MIC ([3]; read-out: Levofloxacin MIC, No EPI, AR-0248): 16 µg/mL; MIC ([3]; read-out: Levofloxacin MIC, No EPI, AR-0249): 64 µg/mL; MIC ([3]; read-out: Levofloxacin MIC, No EPI, AR-0252): 32 µg/mL; MIC ([3]; read-out: Levofloxacin MIC, No EPI, AR-0253): 2 µg/mL; MIC ([3]; read-out: Levofloxacin MIC, No EPI, AR-0264): 64 µg/mL
